From patent US20030138375A1, “Individualization of therapy with Alzheimer's disease agents” (priority 2001, published 2003)
Structures can show the parent of a compound that is named as a salt. Marks after values point to notes of the source that are not given here.

How the values were obtained:
[1] = tested on: individuals with mild to moderate Alzheimer's disease; conditions: cited from earlier work
[2] = cited from earlier work
[3] = tested on: AAMU-Ab; test: Competitive antigen ELISA, cross-reactivity of AAMU-Ab; format: binding, rabbit; conditions: 0 = absence of inhibition or inhibition no higher than 40% at 5×10^−3 M
Experimental: Buffers and water without additives are filtered through millipore filters and kept for 1 week. BSA, antibodies, Tween™ 20 and horse radish peroxidase conjugates are added to these buffers and water just prior to use. Urine samples are usually collected 4 hours after drinking a cup of coffee (instant or brewed with approximately 100 mg of caffeine per cup) and stored at −80° C. The urine samples are diluted 10 times with sodium phosphate buffer (620 mosm, pH 7.50) and are subsequently diluted with water to give concentrations of AAMU and 1X no higher than 3×10^−6 M in the ELISA. All the pipettings are done with an eight-channel pipette, except those of the antibody and sample solutions. Starting with the last well, 100 μL of a carbonate buffer (100 mM, pH 9.6) containing 2.5 μg mL^−1 antibodies are added to each well. After 90 min. at room temperature, the wells are washed three times with 100 mL of TPB: isotonic sodium phosphate buffer (310 mosm, pH 7.50) containing 0.05% Tween™ 20.
After the initial wash, unoccupied sites are blocked by incubation for 90 min. at room temperature with 100 μL TBP containing 3% BSA. The wells are washed four times with 100 μL TPB. […] The microplate is gently shaken with an orbital shaker at room temperature for 3-4 hours. The wells are washed three times with 100 μL TPB containing 1% BSA and three times with water containing 0.05% Tween™ 20. […]

COc1cc2c(cc1OC)C(=O)C(CC1CCN(Cc3ccccc3)CC1)C2 (racemic) [Donepezil, (±)-2,3-dihydro-5,6-dimethoxy-2-[[1-(phenylmethyl)-4-piperidinyl]methyl] -1H-inden-1-onehydrochloride]
effect size on the ADAS-Cog vs placebo ([1]; 5 mg or 10 mg per day, over 24 weeks): about 3 points

COc1cc2c(cc1O)C(=O)C(CC1CCN(Cc3ccccc3)CC1)C2 (stereo not drawn) [6-O-desmethyl donepezil]
plasma radioactivity, expressed as a percent of the administered dose ([2]; 14C-labeled donepezil): 11% | plasma concentration relative to donepezil ([2]; in vivo): about 20%

Nc1c2c(nc3ccccc13)CCCC2 [Tacrine]
improvement in cognitive function on the ADAS-Cog ([1]; 40 mg four times daily, over 12 weeks): about 2 points | persons who had to discontinue the drug due to side effects ([1]; human, in vivo): up to half

O=c1[nH]c(=O)c2[nH]cnc2[nH]1 [Xanthine]
% Cross-Reaction AAMU-Ab [3]: 0^a %
